Laboratory results published in US9611276B2, “Imidazo bicyclic iminium compounds as antitumor agents” (THE BOARD OF TRUSTEES OF THE LELAND STANFORD JUNIOR …, priority 2012, dated 2017).

Columns and labels:
Hh pathway activity [1] = assay: Shh-LIGHT2 cell assay with ShhN-conditioned medium; format: cell-based
Protocol: Shh-LIGHT2 cells [see Taipale et al. Nature. 2000; 406(6799):1005-9], an NIH-3T3-based cell line containing a stably integrated Gli-responsive firefly luciferase reporter (8XGliBS-FL) and constitutive Renilla luciferase reporter (pRLTK, Promega), were cultured in DMEM (Invitrogen, 11965) containing 10% (v/v) calf serum [the American Type Culture Collection (ATCC), 30-2030], 150 μg/mL zeocin (Invitrogen, R250-01), 400 μg/mL G418 (Invitrogen, 11811), 1 mM sodium pyruvate (Invitrogen, 11360) and 1× PenStrep.
(§1) All test compounds were dissolved in DMSO at 50 mM, serially diluted by 1:3, 1:4 or 1:5 in a 96-well translucent microplate (Greiner bio-one, 650201) and stored at −20° C. These serial dilutions were added to assay media freshly with final DMSO concentration of 0.2% (v/v).
The Shh-LIGHT2 cell assay provides a measure of Hh pathway activity. ShhN-conditioned medium was prepared by culturing a Shh-N-producing HEK 293 cell line [see Chen et al. Proc Natl Acad Sci USA. […] The cells were lysed with passive lysis buffer (50 μL/well), and 10 μL of the obtained lysate were analyzed for firefly and Renilla luciferase activities using Dual-Luciferase Reporter Assay System (Promega, E1960) (50 μL/well of each reagent) on a microplate luminometer (Veritas). Biological triplicates were analyzed for each test compounds.

Hh pathway activity [2] = assay: Sufu-KO-LIGHT cell assay, Gli-dependent firefly luciferase reporter; format: cell-based, mouse; conditions: for IC50: Mus musculus
Protocol: Sufu-KO-LIGHT cells were derived from Sufu knockout mouse embryonic fibroblasts according to the method of Chen et al. [Genes Dev. 2009; 23(16):1910-28.] The cells were co-transfected with the zeocin resistance vector (pVgRXR, Invitrogen) and a firefly luciferase reporter driven by eight Gli binding sites and a γ-crystallin basal promoter (8XGliBS-FL) [see Sasaki et al. Development. 1997; 124(7):1313-22.2]. […] Sufu-KO-LIGHT cells were cultured in DMEM (Invitrogen, 11965) containing 10% (v/v) fetal bovine serum (Invitrogen, No. 26140), 150 μg/mL zeocin (Invitrogen, R250-01), 1 mM sodium pyruvate (Invitrogen, 11360) and 1× PenStrep (Gibco, 15140).
as §1
The Sufu-KO-LIGHT cell assay provides a measure of Hh pathway activity and cytotoxicity. Sufu-KO-LIGHT cells were seeded into a 96-well plate (35,000 cells/well), cultured to confluency for 24 hrs and then incubated with test compounds in DMEM without phenol red (Invitrogen, 26140) containing 0.5% (v/v) fetal bovine serum (Invitrogen, No. 26140), 150 μg/mL zeocin (Invitrogen, R250-01), 1 mM sodium pyruvate (Invitrogen, 11360), 1× PenStrep (Gibco, 15140) for 16 hrs. Bright Glo (Promega, E2620) reagent (50 μL/well) was added to the cells, and luciferase activities were determined on a microplate luminometer (Veritas). To assess cytotoxicity, after 15 hrs of incubation with test compounds, CellTiter 96 AQueous One Solution Cell Proliferation Assay (Promega, G3580) reagent (20 μL/well) was added. Cell viability was determined by measuring absorption at 490 nm after 1 hr of incubation on a microplate spectrophotometer (Benchmark Plus, Bio-Rad). Biological triplicates were analyzed for each test compounds.

Gli2 = Gli2 trafficking assay in NIH 3T3 cells; format: cell-based; conditions: ShhN treatment
Protocol: NIH 3T3 cells were also employed in an assay to quantify Gli2 trafficking NIH-3T3 cells were seeded into 24-well plates containing poly-D-lysine-coated 12-mm glass coverslips (65,000 cells/well) and cultured for 24 hrs. […] Each compound or vehicle treatment was conducted in biological triplicates in the presence or absence of 10% (v/v) ShhN-conditioned medium. The cells were subsequently fixed in PBS containing 4% (v/v) paraformaldehyde for 12 min at room temperature, washed three times with PBS, permeabilized in PBS containing 0.5% (v/v) Triton X-100 for 5 min, and washed again twice in PBS. […] After three PBS washes, the coverslips were mounted onto slides using Prolong Gold Antifade Reagent with DAPI (Invitrogen, P36931). The cells were imaged using a Plan Apochromat 63×/1.4-0.6 oil immersion objective on an upright Leica DM4500B compound microscope. Ciliary Gli2 levels were quantified by determining total pixel intensity within a circular region manually placed at the distal end of each cilium and subtracting background fluorescence in an adjacent region of equivalent size. A total of 30 cilia from three coverslips were analyzed to determine the average ciliary Gli2 level for each experimental condition as a measure of Gli2 trafficking.

[3] = tested on: Hh pathway-dependent osteoblast differentiation; assay: C3H10T(1/2) cell assay, alkaline phosphatase; format: cell-based
Protocol: C3H10T(1/2) cells were obtained from ATCC and cultured in DMEM (Invitrogen, 11965) containing 10% (v/v) fetal bovine serum (Invitrogen, No. 26140), and 1× PenStrep (Gibco, 15140).
as §1
The C3H10T(1/2) cell assay provides a measure of Hh pathway-dependent osteoblast differentiation. C3H10T(1/2) cells were seeded into a 96-well plate (20,000 cells/well), cultured for 30 hrs and then incubated with test compounds in DMEM (Invitrogen, 11965) containing 0.5% (v/v) fetal bovine serum (Invitrogen, 26140), 1× PenStrep (Gibco, 15140), and 10% (v/v) Shh-N-conditioned medium for 44 hrs. The cells were lysed with lysis buffer (50 μL/well) containing 50 mM Tris-HCl, pH 9.5, 150 mM NaCl, 50 mM MgCl2, and 1% (v/v) Triton X-100. 10 μL of the obtained lysate were analyzed for alkaline phosphatase activities using CDP-Star Substrate (Applied Biosystems, T2146) reagent (50 μL/well) on a microplate luminometer (Veritas). Biological triplicates were analyzed for each test compounds.

SMILES: CCOc1ccc(-[n+]2cc(-c3ccc(Br)cc3)n3c2CCCCC3)cc1 [Compound A-1]
- Inhibition of Hh pathway activity (Hh pathway activity [1]; Shh-LIGHT2 cells stimulated with ShhN): inhibits Hh pathway activity
- IC50 (Hh pathway activity [1]; Shh-LIGHT2 w/ ShhN, read-out: IC50, firefly luciferase): 6.6 µM
- IC50 (Hh pathway activity [2]): 1.42 ± 0.96 µM
- IC50 (Hh pathway activity [2]; read-out: IC50, firefly luciferase): 1.42 ± 0.96 µM
- Inhibition of Hh pathway activity (Hh pathway activity [2]; Sufu-KO-LIGHT cells): inhibits Hh pathway activity
- Effect on ShhN-induced Gli2 accrual at the ciliary distal tip (Gli2): did not inhibit this process
- IC50 ([3]; Osteoblast, C3H10T(½) w/ ShhN): 5.2 ± 3.7 µM
- Differentiation of C3H10T1/2 cells into alkaline-phosphatase-expressing osteoblasts ([3]; ShhN-conditioned medium): blocked
